Results on 55 compounds are retold here after patent US8697694B2, “Substituted pyridine and pyrimidine derivatives and their use in treating viral infections” (priority 2008, dated 2014).

Structures are written as SMILES.

For one assay, the system named is HCV replicon cells. Description: Cell-based HCV replicon assay (replicon RNA level by real time PCR, Taqman). Particulars: Hepatitis C virus, 72 h, HCV replicon cells, harvested day 3, replicon RNA by real time PCR; given as number; read-out: EC90 (μM) range. In short, it runs like this:
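HCV replicon cells treated 3 days with 10 serial 2-fold compound dilutions (top 25 μM to 1 μM; 0.5% DMSO, 10% FBS). Replicon RNA quantified by multiplex Taqman RT-PCR (NS5B amplicon, GAPDH control); EC50 and EC90 = concentrations giving ΔCT of 1 and 3.2 over baseline.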
In general terms: Replicon systems follow genome replication, usually without infectious particles.
`CCOc1cc2cc(-c3c(C)nc(NCc4nccs4)nc3N[C@@H]3C[C@H](CO)[C@@H](O)[C@H]3O)oc2c(C)n1` [Example 24]: the concentration for an effect of 90% (EC90) worked out at 0.02 µM.

Regarding `Cc1nc(NCC2CC2)nc(N[C@@H]2C[C@H](CO)[C@@H](O)[C@H]2O)c1-c1cc2cc(OCC3CC3)nc(C)c2o1` [Example 42], the concentration for an effect of 90% (EC90) turned out to be 0.3 µM.

As to `COc1cc(CNc2nc(C)c(-c3cc4cc(OCC5CC5)ncc4o3)c(N[C@@H]3C[C@H](CO)[C@@H](O)[C@H]3O)n2)cc(OC)c1` [Example 56], the concentration for an effect of 90% (EC90) was determined as 0.06 µM.

Still in this assay, the particulars now being: Hepatitis C virus, 72 h, HCV replicon cells, harvested day 3, replicon RNA by real time PCR; reported as range class; read-out: EC90 (μM) range.
`Cc1nc(NCCCC(F)(F)F)nc(N[C@@H]2C[C@H](CO)[C@@H](O)[C@H]2O)c1-c1nc2ccccc2s1` [Example 225]: the EC90 was less than 0.5 µM.

Take `Nc1nc(Cl)c(-c2cc3cc(-c4nc5ccccc5o4)ccc3o2)c(N[C@@H]2C[C@H](CO)[C@@H](O)[C@H]2O)n1` [Example 180]: the concentration for an effect of 90% (EC90) is more than 5 µM.

For the compound `Cc1nc(NCC2CC2)nc(N[C@@H]2C[C@H](CO)[C@@H](O)[C@H]2O)c1-c1cc2cc(-c3cccs3)nc(C)c2o1` [Example 43], the 90% effect concentration (EC90) is more than 5 µM.

Take `Cc1ccc2nc(-c3c(Cl)nc(N)nc3N[C@@H]3C[C@H](CO)[C@H]4OC(C)(C)O[C@H]43)oc2c1` [Example 190]: the EC90 was more than 5 µM.

`CCCOc1ccc2nc(-c3c(Cl)nc(N)nc3N[C@@H]3C[C@H](CO)[C@@H](O)[C@H]3O)sc2c1` [Example 197]: the concentration for an effect of 90% (EC90) is less than 0.5 µM.

For `Nc1nc(Cl)c(-c2cc3cc(-c4ccccc4)ccc3o2)c(N[C@@H]2C[C@H](CO)[C@@H](O)[C@H]2O)n1` [Example 174], the 90% effect concentration (EC90) is more than 5 µM.

On to `NC(=O)c1ccc2cc(-c3c(Cl)nc(N)nc3N[C@@H]3C[C@H](CO)[C@@H](O)[C@H]3O)oc2c1` [Example 178], for which the EC90 was more than 5 µM.

For the compound `Nc1nc(Cl)c(-c2cc3cc(F)c(F)cc3o2)c(N[C@@H]2C[C@H](CO)[C@@H](O)[C@H]2O)n1` [Example 169], the EC90 is more than 5 µM.

Consider `CN(C)c1nc(Cl)c(-c2nc3ccccc3o2)c(N[C@@H]2C[C@H](CO)[C@@H](O)[C@H]2O)n1` [Example 117], for which the concentration for an effect of 90% (EC90) is 0.5 to 5 µM.

`COCc1cc2cc(-c3c(Cl)nc(N)nc3N[C@@H]3C[C@H](CO)[C@@H](O)[C@H]3O)oc2cn1` [Example 310]: the concentration for an effect of 90% (EC90) was less than 0.5 µM.

The assay is the same for the next values; noted with them: Hepatitis C virus, 72 h, HCV replicon cells, harvested on day 3, replicon RNA by real time PCR; calculated EC90 reported as range class; read-out: EC90 (μM) range.
For `Cc1nc(NCc2ccc(F)cc2)nc(N[C@@H]2C[C@H](CO)[C@H]3OC(C)(C)O[C@H]32)c1-c1nc2ccccc2s1` [Example 235], the EC90 was less than 0.5 µM.

As for `C[C@H](Nc1nc(Cl)c(-c2nc3ccccc3s2)c(N[C@@H]2C[C@H](CO)[C@@H](O)[C@H]2O)n1)c1ccccc1` [Example 440], the EC90 was 0.5 to 5 µM.

`Cc1cc2cc(-c3c(C)nc(NCC4CCCCC4)nc3N[C@@H]3C[C@H](CO)[C@@H](O)[C@H]3O)oc2c(C)n1` [Example 461]: the EC90 was less than 0.5 µM.

Turning to `CO[C@H](C)CNc1nc(C)c(-c2nc3ccccc3s2)c(N[C@@H]2C[C@H](CO)[C@@H](O)[C@H]2O)n1` [Example 231], the EC90 was less than 0.5 µM.

For `Cc1nc(NCCNC(=O)OCc2ccccc2)nc(N[C@@H]2C[C@H](CO)[C@@H](O)[C@H]2O)c1-c1nc2ccccc2s1` [Example 254], the EC90 is 0.5 to 5 µM.

As for `Cc1nc(NCc2cccc[n+]2[O-])nc(N[C@@H]2C[C@H](CO)[C@@H](O)[C@H]2O)c1-c1nc2ccccc2s1` [Example 482], the EC90 was 0.5 to 5 µM.

For the compound `CCOCCNc1nc(C)c(-c2cc3cc(C(F)(F)F)ncc3o2)c(N[C@@H]2C[C@H](CO)[C@H]3OC(C)(C)O[C@H]32)n1` [Example 134], the 90% effect concentration (EC90) was more than 5 µM.

Turning to `Cc1nc(NCC(F)(F)F)nc(N[C@@H]2C[C@H](CO)[C@@H](O)[C@H]2O)c1-c1cc2cc(C(F)(F)F)ncc2o1` [Example 142], the 90% effect concentration (EC90) was 0.5 to 5 µM.

With `Cc1nc(NCC2CCOCC2)nc(N[C@@H]2C[C@H](CO)[C@@H](O)[C@H]2O)c1-c1nc2ccccc2s1` [Example 449], the EC90 was less than 0.5 µM.

On to `Cc1nc(NCc2ccccc2)nc(N[C@@H]2C[C@H](CO)[C@@H](O)[C@H]2O)c1-c1nc2ccccc2s1` [Example 431], for which the concentration for an effect of 90% (EC90) is less than 0.5 µM.

As to `CCC(C)(C)Nc1nc(Cl)c(-c2nc3ccccc3s2)c(N[C@@H]2C[C@H](CO)[C@@H](O)[C@H]2O)n1` [Example 506], the concentration for an effect of 90% (EC90) was less than 0.5 µM.

Take `Cc1nc(NCc2ccc(F)cc2)nc(N[C@@H]2C[C@H](CO)[C@@H](O)[C@H]2O)c1-c1nc2ccccc2s1` [Example 238]: the EC90 is less than 0.5 µM.

As for `CCc1cc2cc(-c3c(C)nc(NCc4cc(OC)cc(OC)c4)nc3N[C@@H]3C[C@H](CO)[C@H]4OC(C)(C)O[C@H]43)oc2cn1` [Example 345], the EC90 is less than 0.5 µM.

In the case of `COc1cc2cc(-c3c(C)nc(NCc4ccccn4)nc3N[C@@H]3C[C@H](CO)[C@H]4OC(C)(C)O[C@H]43)oc2c(C)n1` [Example 349], the EC90 was 0.5 to 5 µM.

In the case of `CC(=O)N1CCC(Nc2nc(Cl)c(-c3nc4ccccc4s3)c(N[C@@H]3C[C@H](CO)[C@@H](O)[C@H]3O)n2)CC1` [Example 507], the EC90 was less than 0.5 µM.

Turning to `Cc1nc(CNc2nc(C)c(-c3nc4ccccc4s3)c(N[C@@H]3C[C@H](CO)[C@H]4OC(C)(C)O[C@H]43)n2)cs1` [Example 494], the 90% effect concentration (EC90) was more than 5 µM.

Turning to `CSc1nc(C)c(-c2nc3ccccc3s2)c(N[C@@H]2C[C@H](CO)[C@@H](O)[C@H]2O)n1` [Example 326], the EC90 was 0.5 to 5 µM.

In the case of `Cc1nc(NCc2cccs2)nc(N[C@@H]2C[C@H](C)[C@@H](O)[C@H]2O)c1-c1nc2ccccc2s1` [Example 337], the EC90 was less than 0.5 µM.

As to `Cc1cc2cc(-c3c(Cl)nc(NCC4CCOCC4)nc3N[C@@H]3C[C@H](CO)[C@@H](O)[C@H]3O)oc2c(C)n1` [Example 458], the EC90 was less than 0.5 µM.

With `Cc1nc(NCc2cccs2)nc(N[C@@H]2CC[C@@H](O)[C@H]2O)c1-c1nc2ccccc2s1` [Example 336], the concentration for an effect of 90% (EC90) was less than 0.5 µM.

Take `Cc1cc(CNc2nc(C)c(-c3nc4ccccc4s3)c(N[C@@H]3C[C@H](CO)[C@@H](O)[C@H]3O)n2)no1` [Example 492]: the EC90 was less than 0.5 µM.

Regarding `CN(C)c1nc(Cl)c(-c2cc3ccncc3o2)c(N[C@@H]2C[C@H](CO)[C@@H](O)[C@H]2O)n1` [Example 522], the EC90 is 0.5 to 5 µM.

Regarding `Cc1nc(NCC(F)(F)F)nc(N[C@@H]2C[C@H](CO)[C@@H](O)[C@H]2O)c1-c1nc2cc(N(C)C)ccc2s1` [Example 247], the EC90 is less than 0.5 µM.

Staying with this assay, now noted: Hepatitis C virus, 72 h, HCV replicon cells, replicon RNA level by real time PCR (Taqman), harvested on day 3; calculated EC90 reported as range class; read-out: EC90 (μM) range.
Regarding `Cc1nc(NCC2CC2)nc(N[C@@H]2C[C@H](CO)[C@@H](O)C2)c1-c1nc2ccccc2s1` [Example 1240], the EC90 was 0.5 to 5 µM.

With `COc1cccc(Nc2nc(C)c(-c3nc4ccccc4s3)c(N[C@@H]3C[C@H](CO)[C@@H](O)[C@H]3O)n2)c1` [Example 1122], the EC90 is 0.5 to 5 µM.

As to `Cc1nc(NCC2CC2)nc(N[C@@H]2C[C@H](CO)[C@@H](O)[C@H]2O)c1-c1nc2ccccc2n1C` [Example 530], the EC90 was more than 5 µM.

For the compound `Cc1nc(NCC(C)(C)C)nc(N[C@@H]2CC[C@@H](O)[C@H]2O)c1-c1nc2cnccc2s1` [Example 1213], the concentration for an effect of 90% (EC90) was more than 5 µM.

`COc1cccc(Nc2nc(C)c(-c3nc4ccccc4s3)c(N[C@@H]3C[C@H](CO)[C@H]4OC(C)(C)O[C@H]43)n2)c1OC` [Example 1128]: the concentration for an effect of 90% (EC90) is more than 5 µM.

Turning to `Cc1nc(NCC2CC2)nc(N[C@@H]2C[C@H](CO)[C@@H](O)[C@H]2O)c1-c1nc2cc(OC(F)F)c(OC(F)F)cc2s1` [Example 1006], the EC90 was 0.5 to 5 µM.

In the case of `Cc1cc2nc(-c3c(C)nc(NCC(F)(F)F)nc3N[C@@H]3C[C@H](CO)[C@@H](O)[C@H]3O)sc2cc1C` [Example 1061], the EC90 was 0.5 to 5 µM.

On to `CCOCCNc1nc(C)c(-c2nc3ccccc3n2C)c(N[C@@H]2C[C@H](CO)[C@@H](O)[C@H]2O)n1` [Example 531], for which the EC90 is more than 5 µM.

Consider `COc1cccc2sc(-c3c(C)nc(N[C@H](C)c4ccc(C)cc4)nc3N[C@@H]3C[C@H](CO)[C@@H](O)[C@H]3O)nc12` [Example 1068], for which the 90% effect concentration (EC90) is 0.5 to 5 µM.

`COc1cc(OC)cc(C(C)Nc2nc(C)c(-c3nc4ccccc4s3)c(N[C@@H]3C[C@H](CO)[C@@H](O)[C@H]3O)n2)c1` (stereo partly shown) [Example 1209]: the 90% effect concentration (EC90) was 0.5 to 5 µM.

The same assay, now with this note: Hepatitis C virus, 72 h, HCV replicon cells, replicon RNA level by real time PCR, harvested day 3; read-out: EC90 (μM) range.
Regarding `Cc1nc(NCC2CC2)nc(N[C@@H]2C[C@H](CO)[C@@H](O)C2(C)O)c1-c1nc2cnccc2s1` (stereo partly shown) [Example 1383], the EC90 is less than 0.5 µM.

For the compound `CCOc1cc2cc(-c3c(C)nc(NCC4CC4)nc3N[C@@H]3C[C@H](CNS(C)(=O)=O)[C@@H](O)[C@H]3O)oc2c(C)n1` [Example 1347], the EC90 was less than 0.5 µM.

In the case of `Cc1nc(NCC(F)(F)F)nc(NC2CCNC2)c1-c1nc2ccccc2s1` (stereo not shown) [Example 1517], the EC90 is more than 5 µM.

Consider `Cc1nc(NCC(C)(C)C)nc(N[C@@H]2C[C@H](CO)[C@@H](O)[C@H]2O)c1-c1nc2ccccc2o1` [Example 1359], for which the EC90 is less than 0.5 µM.

As to `COc1nc(C)c(-c2nc3ccccc3s2)c(N[C@@H]2C[C@H](CO)[C@@H](O)[C@H]2O)n1` [Example 1907], the EC90 was in the range of 0.5 to 5 µM.

Consider `Cc1nc(NCC(F)(F)F)nc(N[C@@H]2CC[C@@H](O)[C@@]2(C)O)c1-c1nc2ccccc2s1` [Example 1702], for which the EC90 lay in the range of 0.5 to 5 µM.

`Cc1nc(NCC2CC2)nc(N[C@@H]2C[C@@H](C(C)O)[C@@H](O)[C@H]2O)c1-c1nc2cnccc2s1` (stereo partly shown) [Example 1650]: the concentration for an effect of 90% (EC90) was less than 0.5 µM.

In the case of `Cc1nc(NCC2CC2)nc(N[C@@H]2CC[C@@H](O)[C@@]2(C)O)c1-c1nc2c(C)nccc2s1` [Example 1815], the EC90 is less than 0.5 µM.

Regarding `Cc1ccc(CCNc2nc(C)c(-c3nc4ccccc4s3)c(N[C@@H]3C[C@H](CO)[C@@H](O)[C@H]3O)n2)s1` [Example 1812], the concentration for an effect of 90% (EC90) lay within 0.5 to 5 µM.

Usually EC90 stands for the concentration needed for an effect of 90%.
